Our source for the GI50 and TGI values is PubChem BioAssay (NCI).

Common to all, as to test: NCI tumour cell line growth inhibition, 48 h
Assay [1] deals with SK-MEL-2 melanoma.
Assay [2] deals with SN12C renal.
Assay [3] concerns UACC-62 melanoma.
In assay [4] the test system is SW-620 colon.
Assay [5] deals with HCT-116 colon.
In assay [6] the test system is IGROV1 ovarian.
The test system of assay [7] is KM12 colon.
The test system of assay [8] is MCF7 breast.
In assay [9] the test system is HCT-15 colon.
Assay [10] has as its system A498 renal.

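Growth conditions: 96-well plates. Treatment: test compound, 48 hours, 5 concentrations. Analysis: linear interpolation between bracketing concentrations; unreached endpoints set to highest concentration. GI50: concentration for 50% inhibition of growth. Definition used: TGI = concentration required for complete inhibition of growth.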 Where a SMILES comes first, the peptide text is derived from it. Bridges are numbered along the chain shown (N, C = ends). [ ]: non-standard residue; d: D form. The star is where a group is joined. ξ: configuration not given here. ξDab(CH2SO3H) = NC(CCNCS(=O)(=O)O)C(=O)O; Heptanoyl(6-Me) = CC(C)CCCCC(=O)*; Dab = NCC[CH](N)C(=O)O Some results are limits rather than exact numbers.

For the molecule `CCC(C)C1NC(=O)C(CCNCS(=O)(=O)O)NC(=O)C(NC(=O)C(CCNCS(=O)(=O)O)NC(=O)C(NC(=O)C(CCNCS(=O)(=O)O)NC(=O)CCCCC(C)C)C(C)O)CCNC(=O)C(C(C)O)NC(=O)C(CCNCS(=O)(=O)O)NC(=O)C(CCNCS(=O)(=O)O)NC(=O)C(C(C)CC)NC1=O` (stereo not given) ({Heptanoyl(6-Me)}-[ξDab(CH2SO3H)]T[ξDab(CH2SO3H)][Dab][ξDab(CH2SO3H)]II[ξDab(CH2SO3H)][ξDab(CH2SO3H)]T; lactam 4-C; configuration not given here), the GI50 is 4.9 µM in [1]; 11.2 µM in assay [2]; 7.44 µM in [3]; 4 µM in assay [4]; 7.33 µM in assay [5]; 13.1 µM in [6]. For the same molecule, the GI50 in assay [7] was 2.99 µM; in [8] it was 4.71 µM; in assay [9], over 25 µM; in assay [10], 7.07 µM. The TGI in assay [1], in [2], in assay [3], in assay [4], in [5] and in assay [6] was over 25 µM each time. For the same molecule, the TGI in assay [7] was 9.55 µM; in [8], over 25 µM; in assay [9], over 25 µM; in [10], over 25 µM.

Consider `CC[C@@H](C(=O)[C@H](C)[C@H](O)[C@@H](C)[C@H]1O[C@H]([C@@H](CC)C(=O)N(CC)CC)CC[C@H]1C)C1O[C@]2(C=C[C@@H](O)[C@]3(CC[C@@](C)([C@H]4CC[C@](O)(CC)[C@H](C)O4)O3)O2)[C@H](C)C[C@@H]1C` (stereo not given in full), for which the GI50 in assay [1] was 3.19 µM; in assay [2], 2.75 µM; in [3], 2.43 µM; in assay [4], 3.22 µM; in assay [5], 2.9 µM; in [6] it was 2.73 µM. In addition, the GI50 in assay [7] was 2.53 µM; in assay [8], 2.61 µM; in [9] it was 2.64 µM; in assay [10] it was 2.44 µM. Also, the TGI was 9.21 µM in assay [1]; 10.1 µM in assay [2]; 10.8 µM in [3]; 13.3 µM in [4]; 12.5 µM in [5]; 10.8 µM in [6]. Also, the TGI in assay [7] turned out to be 7.03 µM; in assay [8], 10.1 µM; in assay [9], 8.28 µM; in [10] it was 8.21 µM.

On to `CCOC(=O)c1cc(C(=O)c2cc(OC)c(OC)c(OC)c2)n2c1ccc1ccccc12`, for which the GI50 in assay [1] is 0.932 µM; in [2], 0.814 µM; in [3], 0.171 µM; in assay [4], 0.157 µM; in assay [5] it was 0.271 µM; in assay [6] it was 0.353 µM. Also, the GI50 was 0.26 µM in assay [7], 0.1 µM in assay [8], 0.137 µM in [9] and 0.0362 µM in [10]. Moreover, the TGI in assay [1], in assay [2], in assay [3], in [4], in [5] and in assay [6] was over 100 µM throughout. Moreover, the TGI is over 100 µM in [7], over 100 µM in [8], over 100 µM in assay [9] and 0.316 µM in [10].

`CC(C)(C)[Si](C)(C)OC1[C@@H](O[Si](C)(C)C(C)(C)C)[C@@H](CNC(=O)NC(=O)CF)O[C@H]1n1cnc2c(NC(=O)Nc3ccccc3)ncnc21` (stereo not given in full): the GI50 in [1] was 30.9 µM; in assay [2], 3 µM; in assay [3], 31.2 µM; in assay [4], 15.5 µM; in [5], 5.21 µM; in assay [6], 22.5 µM. The GI50 was 9.36 µM in [7], 1.78 µM in assay [8], 11.2 µM in [9] and 8.92 µM in [10]. Besides, the TGI was over 50 µM in assay [1]; 13.2 µM in assay [2]; over 50 µM in assay [3]; over 50 µM in [4]; 20.5 µM in assay [5]; over 50 µM in assay [6]. Moreover, the TGI in [7] was 38.3 µM; in assay [8], 13.2 µM; in assay [9], over 50 µM; in assay [10], 25.3 µM.

Turning to `C[C@@H]1CCC([C@@H](C)[C@H]2CC[C@H]3[C@@H]4CC[C@H]5C[C@@H](O)CC[C@]5(C)[C@H]4CC[C@]23C)=NC1`, the TGI in assay [1] is 34.8 µM; in assay [2], over 100 µM; in assay [3] it was over 70.8 µM; in assay [4], over 100 µM; in assay [5], over 100 µM; in [6], over 100 µM. Moreover, the TGI in assay [7] is over 59.7 µM; in [8], over 54.8 µM; in assay [9], 44.8 µM; in assay [10] it was over 100 µM.

On to `C[C@]12CC[C@@H]3c4cc(O)c(O)cc4CC[C@H]3[C@@H]1CC[C@@H]2O`, for which the GI50 in assay [1] is 3.23 µM; in [2], 6.21 µM; in assay [3], 3.9 µM; in assay [4] it was 2.73 µM; in assay [5], 4.4 µM; in [6], 11 µM. Further, the GI50 in [7] was 8.23 µM; in assay [8], 3.07 µM; in assay [9] it was 0.877 µM; in assay [10], 19.7 µM. In addition, the TGI is 22.2 µM in assay [1]; over 100 µM in assay [2]; 29.1 µM in assay [3]; over 42.5 µM in assay [4]; over 51.4 µM in assay [5]; over 91.3 µM in [6]. Further, the TGI in assay [7] was determined as 22.3 µM; in assay [8], 18 µM; in assay [9], 24.8 µM; in assay [10], 62.3 µM.

For `O=C(/C(=C/c1ccc([N+](=O)[O-])cc1)SCc1ccc(Cl)cc1)c1ccc(F)cc1`, the GI50 is 7.9 µM in [1]; 2.4 µM in assay [2]; 2.27 µM in assay [3]; 1.71 µM in assay [4]; 1.39 µM in assay [5]; 3.93 µM in assay [6]. For the same molecule, the GI50 in [7] is 2.71 µM; in [8], 1.56 µM; in assay [9], 1.9 µM; in assay [10], 13.9 µM. For the same molecule, the TGI turned out to be 23.1 µM in [1]; 7.43 µM in assay [2]; 8.47 µM in [3]; 4.91 µM in assay [4]; 2.92 µM in assay [5]; 22.3 µM in [6]. The TGI in assay [7] came to 8.08 µM; in assay [8], 4.78 µM; in assay [9], 4.26 µM; in [10], 38.4 µM.
